Laboratory results as given in BigSolDB 2.1.

Work on `CC(=O)[C@H]1CC[C@H]2[C@@H]3CCC4=CC(=O)CC[C@]4(C)[C@H]3CC[C@]12C` yielded a solubility (mole fraction) (in 1,4-dioxane, 288.15 K) of 0.0614, a solubility (mole fraction) (in 1,4-dioxane, 293.15 K) of 0.073 and a solubility (mole fraction) (in 1,4-dioxane, 298.15 K) of 0.0855. For the same molecule, the solubility (mole fraction) (in 1,4-dioxane, 303.15 K) was 0.1, the solubility (mole fraction) (in 1,4-dioxane, 308.15 K) was 0.117 and the solubility (mole fraction) (in 1,4-dioxane, 313.15 K) was 0.136. It also gave a solubility (mole fraction) (in 1,4-dioxane, 318.15 K) of 0.156, a solubility (mole fraction) (in 1,4-dioxane, 323.15 K) of 0.179 and a solubility (mole fraction) (in THF, 278.15 K) of 0.0598. For the same molecule, the solubility (mole fraction) (in THF, 283.15 K) was 0.0701, the solubility (mole fraction) (in THF, 288.15 K) was 0.0816 and the solubility (mole fraction) (in THF, 293.15 K) was 0.0943. It also gave a solubility (mole fraction) (in THF, 298.15 K) of 0.109, a solubility (mole fraction) (in THF, 303.15 K) of 0.125 and a solubility (mole fraction) (in THF, 308.15 K) of 0.143. For the same molecule, the solubility (mole fraction) (in THF, 313.15 K) was 0.163, the solubility (mole fraction) (in THF, 318.15 K) was 0.185 and the solubility (mole fraction) (in THF, 323.15 K) was 0.209. It also gave a solubility (mole fraction) (in acetone, 278.15 K) of 0.0143, a solubility (mole fraction) (in acetone, 283.15 K) of 0.0187 and a solubility (mole fraction) (in acetone, 288.15 K) of 0.0244. The solubility (mole fraction) (in acetone, 293.15 K) was 0.0311, the solubility (mole fraction) (in acetone, 298.15 K) was 0.0397 and the solubility (mole fraction) (in acetone, 303.15 K) was 0.0494. It also gave a solubility (mole fraction) (in acetone, 308.15 K) of 0.0617, a solubility (mole fraction) (in acetone, 313.15 K) of 0.076 and a solubility (mole fraction) (in acetone, 318.15 K) of 0.094. It also gave a solubility (mole fraction) (in acetone, 323.15 K) of 0.116, a solubility (mole fraction) (in acetonitrile, 278.15 K) of 0.00716 and a solubility (mole fraction) (in acetonitrile, 283.15 K) of 0.0101. It also gave a solubility (mole fraction) (in acetonitrile, 288.15 K) of 0.0131, a solubility (mole fraction) (in acetonitrile, 293.15 K) of 0.0178 and a solubility (mole fraction) (in acetonitrile, 298.15 K) of 0.0235. The solubility (mole fraction) (in acetonitrile, 303.15 K) was 0.0305, the solubility (mole fraction) (in acetonitrile, 308.15 K) was 0.0396 and the solubility (mole fraction) (in acetonitrile, 313.15 K) was 0.0508. For the same molecule, the solubility (mole fraction) (in acetonitrile, 318.15 K) was 0.0646, the solubility (mole fraction) (in acetonitrile, 323.15 K) was 0.0816 and the solubility (mole fraction) (in ethanol, 278.15 K) was 0.00337. For the same molecule, the solubility (mole fraction) (in ethanol, 283.15 K) was 0.00455, the solubility (mole fraction) (in ethanol, 288.15 K) was 0.00623 and the solubility (mole fraction) (in ethanol, 293.15 K) was 0.00859. The solubility (mole fraction) (in ethanol, 298.15 K) was 0.0112, the solubility (mole fraction) (in ethanol, 303.15 K) was 0.0146 and the solubility (mole fraction) (in ethanol, 308.15 K) was 0.0192. It also gave a solubility (mole fraction) (in ethanol, 313.15 K) of 0.0251, a solubility (mole fraction) (in ethanol, 318.15 K) of 0.0319 and a solubility (mole fraction) (in ethanol, 323.15 K) of 0.0411. It also gave a solubility (mole fraction) (in ethyl acetate, 278.15 K) of 0.0142, a solubility (mole fraction) (in ethyl acetate, 283.15 K) of 0.0175 and a solubility (mole fraction) (in ethyl acetate, 288.15 K) of 0.0215. For the same molecule, the solubility (mole fraction) (in ethyl acetate, 293.15 K) was 0.0266, the solubility (mole fraction) (in ethyl acetate, 298.15 K) was 0.0321 and the solubility (mole fraction) (in ethyl acetate, 303.15 K) was 0.039. The solubility (mole fraction) (in ethyl acetate, 308.15 K) was 0.0471, the solubility (mole fraction) (in ethyl acetate, 313.15 K) was 0.0566 and the solubility (mole fraction) (in ethyl acetate, 318.15 K) was 0.0671. It also gave a solubility (mole fraction) (in ethyl acetate, 323.15 K) of 0.0802, a solubility (mole fraction) (in isopropanol, 278.15 K) of 0.00314 and a solubility (mole fraction) (in isopropanol, 283.15 K) of 0.00446. The solubility (mole fraction) (in isopropanol, 288.15 K) was 0.00615, the solubility (mole fraction) (in isopropanol, 293.15 K) was 0.00841 and the solubility (mole fraction) (in isopropanol, 298.15 K) was 0.0115. It also gave a solubility (mole fraction) (in isopropanol, 303.15 K) of 0.0153, a solubility (mole fraction) (in isopropanol, 308.15 K) of 0.0203 and a solubility (mole fraction) (in isopropanol, 313.15 K) of 0.0269. For the same molecule, the solubility (mole fraction) (in isopropanol, 318.15 K) was 0.0349, the solubility (mole fraction) (in isopropanol, 323.15 K) was 0.0455 and the solubility (mole fraction) (in methanol, 278.15 K) was 0.00232. The solubility (mole fraction) (in methanol, 283.15 K) was 0.00335, the solubility (mole fraction) (in methanol, 288.15 K) was 0.00472 and the solubility (mole fraction) (in methanol, 293.15 K) was 0.00676. It also gave a solubility (mole fraction) (in methanol, 298.15 K) of 0.0092, a solubility (mole fraction) (in methanol, 303.15 K) of 0.0127 and a solubility (mole fraction) (in methanol, 308.15 K) of 0.0173. The solubility (mole fraction) (in methanol, 313.15 K) was 0.0234, the solubility (mole fraction) (in methanol, 318.15 K) was 0.0308 and the solubility (mole fraction) (in methanol, 323.15 K) was 0.0412. It also gave a solubility (mole fraction) (in n-butanol, 278.15 K) of 0.00706, a solubility (mole fraction) (in n-butanol, 283.15 K) of 0.00947 and a solubility (mole fraction) (in n-butanol, 288.15 K) of 0.0127. It also gave a solubility (mole fraction) (in n-butanol, 293.15 K) of 0.0164, a solubility (mole fraction) (in n-butanol, 298.15 K) of 0.0211 and a solubility (mole fraction) (in n-butanol, 303.15 K) of 0.0268. It also gave a solubility (mole fraction) (in n-butanol, 308.15 K) of 0.0346, a solubility (mole fraction) (in n-butanol, 313.15 K) of 0.0439 and a solubility (mole fraction) (in n-butanol, 318.15 K) of 0.0551. The solubility (mole fraction) (in n-butanol, 323.15 K) was 0.0682, the solubility (mole fraction) (in n-heptane, 278.15 K) was 0.000112 and the solubility (mole fraction) (in n-heptane, 283.15 K) was 0.00018. The solubility (mole fraction) (in n-heptane, 288.15 K) was 0.000281, the solubility (mole fraction) (in n-heptane, 293.15 K) was 0.000425 and the solubility (mole fraction) (in n-heptane, 298.15 K) was 0.000617. For the same molecule, the solubility (mole fraction) (in n-heptane, 303.15 K) was 0.000914, the solubility (mole fraction) (in n-heptane, 308.15 K) was 0.00135 and the solubility (mole fraction) (in n-heptane, 313.15 K) was 0.00198. For the same molecule, the solubility (mole fraction) (in n-heptane, 318.15 K) was 0.00284, the solubility (mole fraction) (in n-heptane, 323.15 K) was 0.00402 and the solubility (mole fraction) (in n-propanol, 278.15 K) was 0.00527. The solubility (mole fraction) (in n-propanol, 283.15 K) was 0.0071, the solubility (mole fraction) (in n-propanol, 288.15 K) was 0.00969 and the solubility (mole fraction) (in n-propanol, 293.15 K) was 0.0131. For the same molecule, the solubility (mole fraction) (in n-propanol, 298.15 K) was 0.0171, the solubility (mole fraction) (in n-propanol, 303.15 K) was 0.0227 and the solubility (mole fraction) (in n-propanol, 308.15 K) was 0.0294. For the same molecule, the solubility (mole fraction) (in n-propanol, 313.15 K) was 0.0378, the solubility (mole fraction) (in n-propanol, 318.15 K) was 0.0485 and the solubility (mole fraction) (in n-propanol, 323.15 K) was 0.0614. The solubility (mole fraction) (in toluene, 278.15 K) was 0.0797, the solubility (mole fraction) (in toluene, 283.15 K) was 0.0907 and the solubility (mole fraction) (in toluene, 288.15 K) was 0.102. It also gave a solubility (mole fraction) (in toluene, 293.15 K) of 0.115, a solubility (mole fraction) (in toluene, 298.15 K) of 0.13 and a solubility (mole fraction) (in toluene, 303.15 K) of 0.146. For the same molecule, the solubility (mole fraction) (in toluene, 308.15 K) was 0.162, the solubility (mole fraction) (in toluene, 313.15 K) was 0.182 and the solubility (mole fraction) (in toluene, 318.15 K) was 0.203. It also gave a solubility (mole fraction) (in toluene, 323.15 K) of 0.225.
